Results from ChEMBL document CHEMBL4739717, “Methods of treating cartilage disorders through inhibition of clk and dyrk” (2020).

How the values were obtained:
[1] = biological target: Dual specificity tyrosine-phosphorylation-regulated kinase 1A (Homo sapiens, UniProt Q13627); experiment: Inhibition of recombinant DYRK1A (unknown origin) using Ser/Thr 18 peptide as substrate incubated for 1 hr in presence of ATP by FRET assay
[2] = Effect on Wnt signaling pathway in human SW480 cells harbouring TCF/LEF luciferase reporter gene and SP5-Luc reporter gene incubated for 36 to 48 hrs by luminescence assay; type: cell-based
[3] = Induction of chondrogenesis in human MSC assessed as maximum activity at 100 nM incubated for 6 days by rhodamine B and Nile red staining based imaging analysis relative to control; type: functional; conditions: BMMSC, 144 h, time 6 day
[4] = Inhibition of IL1-beta induced MMP3 expression levels in human chondrocytes assessed as MMP3 levels incubated for 2hrs followed by IL1-beta stimulation and measured after overnight incubation by LANCE assay; type: functional, cell-based; conditions: Chondrocyte
[5] = Induction of chondrogenesis in human MSC assessed as maximum activity at 30 nM incubated for 6 days by rhodamine B and Nile red staining based imaging analysis relative to control; type: functional; conditions: BMMSC, 144 h, time 6 day
[6] = Induction of chondrogenesis in human MSC assessed as incubated for 6 days by rhodamine B and Nile red staining based imaging analysis; type: functional; conditions: bmmsc

SMILES	EC50 [1] [nM]	EC50 [2] [nM]	Emax at 0.1 µM [3] [%]	EC50 [4] [nM]	Emax at 0.03 µM [5] [%]	EC50 [6] [nM]
FC1(F)CCN(Cc2cncc(-c3cnc4[nH]nc(-c5cc6c(-c7ccncc7)cccc6[nH]5)c4c3)c2)C1	76	708	29.2			
Fc1cccc(-c2cncc3[nH]c(-c4n[nH]c5ncc(-c6cccnc6)cc45)cc23)c1	57	572	35.6			
CN1CCN(c2nccc3[nH]c(-c4n[nH]c5ccc(-c6cncc(NC(=O)c7ccccc7)c6)cc45)cc23)CC1	16	2140	34.6			
CC(C)C(=O)Nc1cncc(-c2ccc3[nH]nc(-c4cc5c(-c6cccnc6)cncc5[nH]4)c3c2)c1	6	260	34.5			
Cn1ncc(-c2ccc3cnc(NC(=O)c4cccc(CN5CCCC5)c4)cc3c2)c1CN1CCCCC1				1190	27.6	
CCNCc1cncc(-c2cnc3[nH]nc(-c4cc5c(-c6ccccc6F)cncc5[nH]4)c3c2)c1	14	2300	37.3			
O=C(Nc1cncc(-c2cnc3[nH]nc(-c4cc5cccnc5[nH]4)c3c2)c1)C1CCCCC1	11	1260	28.5			
Nc1cncc(-c2cnc3[nH]nc(-c4cc5c(-c6ccccc6F)ccnc5[nH]4)c3c2)c1	59	745	27.6			
CN1CCN(c2nccc3[nH]c(-c4n[nH]c5ncc(-c6cncc(NC(=O)C7CCCC7)c6)cc45)cc23)CC1	7	> 10000	30.3			
FC1(F)CCN(Cc2cncc(-c3ccc4[nH]nc(-c5cc6c(N7CCCCC7)ccnc6[nH]5)c4n3)c2)C1	30	5270	37.6			
O=C(CC1CCNCC1)Nc1cncc(-c2ccc3[nH]nc(-c4cc5c(N6CCCCC6)nccc5[nH]4)c3n2)c1	6	> 10000		1470	21.8	
c1cc2[nH]c(-c3n[nH]c4ccc(-c5cncc(CN6CCCCC6)c5)cc34)cc2c(N2CCCCC2)n1	32	4210	48.1			
c1ncc(-c2ccc3[nH]nc(-c4cc5c(-c6ccoc6)nccc5[nH]4)c3c2)cn1	33	1910	40.2			
CCC(=O)Nc1cncc(-c2ccc3[nH]nc(-c4cc5c(-c6cc(F)cc(CNS(C)(=O)=O)c6)cncc5[nH]4)c3c2)c1	22	244	29.4			
O=C(Nc1cncc(-c2cnc3[nH]nc(-c4cc5c(-c6ccncc6)cncc5[nH]4)c3c2)c1)C1CCC1	4	> 10000		17.9	43.5	
CC(C)(C)CC(=O)Nc1cncc(-c2ccc3[nH]nc(-c4cc5c(-c6ccoc6)ccnc5[nH]4)c3c2)c1	20	890	21.2			
CC(C)CC(=O)Nc1cncc(-c2cc3c(-c4cc5cccnc5[nH]4)n[nH]c3cn2)c1	13	> 10000	40.4			
c1cc2[nH]c(-c3n[nH]c4ncc(-c5cncc(CN6CCCCC6)c5)cc34)cc2cn1	7	1540	39.7			
Nc1cncc(-c2ccc3[nH]nc(-c4cc5c(-c6ccccn6)ccnc5[nH]4)c3c2)c1	13	22.4	46.1			
FC1(F)CCN(Cc2cncc(-c3ccc4[nH]nc(-c5nc6c(N7CCCCC7)cncc6[nH]5)c4c3)c2)C1	22	20	80.1			
O=C(Nc1c[nH]nc1C(=O)Nc1cncc(-c2cccc(F)c2)c1)c1cncc(OC2CCNCC2)c1	12	1600		339	89.5	

SMILES	EC50 [1] [nM]	EC50 [2] [nM]	Emax at 0.1 µM [3] [%]	EC50 [4] [nM]	Emax at 0.03 µM [5] [%]	EC50 [6] [nM]
c1cncc(-c2cnc3[nH]nc(-c4nc5c(-c6cccnc6)cncc5[nH]4)c3c2)c1	86	> 10000	62.9			
CN1CCN(c2cncc3[nH]c(-c4n[nH]c5ccc(-c6cncc(CNCc7ccccc7)c6)cc45)cc23)CC1	7	3290		329	101	30
CN1CCN(c2nccc3[nH]c(-c4n[nH]c5cc(F)c(-c6cnn(C)c6)cc45)nc23)CC1	4	85.7		35.5	113	
CN(C)Cc1cncc(-c2cnc3[nH]nc(-c4nc5c(-c6cccs6)cncc5[nH]4)c3c2)c1	9	48		3000	146	30
Cc1ccc(-c2nccc3[nH]c(-c4n[nH]c5cnc(-c6cncc(N)c6)cc45)nc23)s1	4	9.2			259	10
O=C(Nc1cncc(-c2ccc3[nH]nc(-c4cc5ccncc5[nH]4)c3n2)c1)C1CCCC1	12	2630			50.3	30
CC(C)C(=O)Nc1cncc(-c2cnc3[nH]nc(-c4cc5c(-c6cc(F)cc(CNS(C)(=O)=O)c6)cncc5[nH]4)c3c2)c1	31	> 10000			59.6	30
COc1cccc(-c2ccnc3[nH]c(-c4n[nH]c5ccc(-c6cccnc6)nc45)nc23)c1	36	1610			50.5	100
Nc1cncc(-c2cnc3[nH]nc(-c4cc5c(-c6ccncc6)nccc5[nH]4)c3c2)c1	4	> 10000			53.5	30
CN(C)Cc1cncc(-c2ccc3[nH]nc(-c4nc5c(-c6cccc(F)c6)cccc5[nH]4)c3n2)c1	65	637			84.6	30
CC(C)C(=O)Nc1cncc(-c2ccc3[nH]nc(-c4nc5c(-c6ccccc6F)cncc5[nH]4)c3c2)c1	10	4		3000	102	30
CC(C)Nc1cncc(-c2ccc3[nH]nc(-c4nc5c(-c6ccoc6)cncc5[nH]4)c3n2)c1	24	597			75.3	30
FC1(F)CCN(Cc2cncc(-c3cc4c(-c5nc6c(N7CCCCC7)cncc6[nH]5)n[nH]c4cn3)c2)C1	6	116			100	10
CCC(=O)Nc1cncc(-c2cc3c(-c4cc5c(-c6cccc(F)c6)nccc5[nH]4)n[nH]c3cn2)c1	45	305			50.8	30
CCC(=O)Nc1cncc(-c2ccc3[nH]nc(-c4nc5c(-c6cccc(F)c6)cncc5[nH]4)c3c2)c1	61	4.6			139	30
CC(C)Nc1cncc(-c2ccc3[nH]nc(-c4nc5c(-c6cc(F)cc(NCCN(C)C)c6)nccc5[nH]4)c3c2)c1	11	202			85.1	30
O=C(Nc1cncc(-c2cnc3[nH]nc(-c4cc5cnccc5[nH]4)c3c2)c1)c1ccccc1	2	> 10000			69.9	30
c1cncc(-c2ccc3[nH]nc(-c4cc5c(-c6cccnc6)ccnc5[nH]4)c3n2)c1	10	> 10000			59.2	100
CN(C)c1cncc(-c2ccc3[nH]nc(-c4nc5c(-c6cccc(F)c6)ccnc5[nH]4)c3n2)c1	25	659			83.8	10
Cc1nnc(-c2ccc3cnc(NC(=O)c4ccnc(N(C)C5CCN(C)CC5)c4)cc3c2)s1				2.7	25.7	
